Experimental data taken from US9592226B2, “Solenopsin and derivatives, therapeutic compositions; and methods related thereto” (priority 2013, dated 2017).

Key:
PH domain of Akt1 = molecular target: T1, PH domain of Akt1 (Homo sapiens, UniProt P31749); assay: PH(Akt)-citrine, Akt translocation in NIH3T3 cells; format: cell-based, murine; conditions: 10 μM, 1 h
T1 construct: attaching the yellow fluorescent protein (citrine) to the C-terminus of PH domain of Akt1; expressed in transfected cells; host or cells: NIH3T3
T1 sequence (P31749 5-108 limits assumed): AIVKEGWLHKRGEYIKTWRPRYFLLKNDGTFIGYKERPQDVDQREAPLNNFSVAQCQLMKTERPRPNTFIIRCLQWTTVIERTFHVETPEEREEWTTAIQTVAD
Experimental: (§1) In order to determine whether solenopsin A and analogs have similar modes of action to ceramide, a series of fluorescent biosensors were employed for the PI3K/Akt pathway. […] No significant inhibition could be seen for any of the other solenopsin analogs (FIG. 4).
(§2) PARE was generated by sandwiching full-length PDK1 between a fluorescent protein pair (FRET pair), ECFP and citrine, and a motif generated from the Lyn-kinase gene was added to the 5′-end to target the construct to raft microdomains. AktAR was generated by a fluorescent protein pair, cerulean and cpVE172, sandwiching a forkhead-associated binding domain (FHA1) and an Akt substrate domain (FOXO). PH(Akt)-citrine was constructed by attaching the yellow fluorescent protein (citrine) to the C-terminus of PH domain of Akt1, therefore the translocation of Akt PH domain can be detected by increase of yellow fluorescence at plasma membrane.
(§3) NIH3T3 cells were plated and grown to 40% confluency. […] The data was analyzed with Metafluor 6.2 software (Universal Imaging, Downingtown, Pa.). Cell regions were selected and fluorescence images were background-corrected by deducting the background (regions with no cells) from the emission intensities of CFP or YFP. […] For analysis of PH (Akt) domain translocation (PH(Akt)-citrine), the ratio of intensities of citrine at cell membrane and cytosol were calculated after background correction. […]

Akt = assay: FRET biosensor AktAR, Akt activity in NIH3T3 cells; format: cell-based, murine; conditions: 10 μM, 1 h
Experimental: as §1, §2, §3

[1] = tested on: SVR (murine angiosarcoma) cells; assay: Proliferation study, SVR cells (Coulter Counter); format: cell-based; conditions: 10 μM, 24 h, cell count vs DMSO
From the text: (§4) Different analogs of solenopsin were synthesized (FIG. 1) in order to explore their structure-activity relationships. The aliphatic side chains of S14 and S13 are 4 and 8 carbons longer compared to solenopsin, respectively. S11 has an 8-carbon longer side chain, as well as an extra methyl group in the 4-position of the piperidine ring. S15 has an 11-carbon side chain similar to solenopsin, but the first carbon in the side chain is hydroxylated. Also, S15 lacks the methyl group in the 2-position of the piperidine ring. All the analogs together with (−)- and (+)-solenosin A, and the isomeric mixture of the two cis-isomers of solenopsin (S12) were tested, at 10 μM, on two different human melanoma cell lines (A375 and A2058) and one murine angiosarcoma cell line (SVR) (FIG. 2). The A375 and A2058 melanoma cell lines express mutant Braf and the SVR murine angiosarcoma cell line expresses mutant Hras. One important difference between the two human melanoma cell lines is the A2058 is PTEN null, whereas A375 is not.
(§5) A375 (human melanoma), A2058 (human melanoma), or SVR (murine angiosarcoma) cells were plated at a concentration of 50,000 cells/well. The cells were treated with 10 μM of (−)-solenopsin A, (+)-solenopsin A, or analogs (S11-S15) for 24 hours, at which point cells were counted with a Coulter Counter.

A375 cells = assay: Superoxide (ROS) by DHE fluorescence, A375 cells; format: cell-based, human; conditions: 10 μM, 24 h
Experimental: Cells were treated for 24 h with 10 μM of (+)-solenopsin A ((+) Sol. A), (−)-solenopsin A ((−) Sol. A), and solenopsin analogs S11-S15. Cells were trypsined and incubated for 10 min in 10 μM dihydroethedium (DHE), followed by analysis with a FACScan flow cytometer. Data shown are an average of three experiments±s.d.
A375 or SVR cells were plated in 6 cm dishes. After cells had adhered to the plates, they were treated for 24 h with 10 μM DMSO solutions of (+)-solenopsin A, (−)-solenopsin A, or analogs (S11-S15) at which time the media was aspirated. Cells were washed with 2 mL PBS then treated with 0.05% trypsin/0.53 mM EDTA (Fisher) for 3 min at RT. Cells were collected and then pelleted at 600 g for 2 min. The supernatant was aspirated and the cells were suspended in 10 uM dihydroethidium (DHE) (Life Technologies) and incubated for 10 min in the dark at RT while shaking Following this incubation, cells were kept until counting on a Becton Dickinson FACScan flow cytometer. 10,000 cells were counted and analyzed by FlowJo 7.6.4. Mean values of DHE fluorescence intensity were compared.

[2] = tested on: A375 (human melanoma) cells; assay: Proliferation study, A375 cells (Coulter Counter); format: cell-based; conditions: 10 μM, 24 h, cell count vs DMSO
Experimental: 50,000 cells/well were plated and treated for 24 h with each compound. The first DMSO bar in each chart serves as control for (+)-solenopsin A, (−)-solenopsin A, and ceramide C2. The second DMSO bar is the control for S11-S15.
as §4, §5

[3] = tested on: A2058 (human melanoma) cells; assay: Proliferation study, A2058 cells (Coulter Counter); format: cell-based; conditions: 10 μM, 24 h, cell count vs DMSO
From the text: as §4, §5

UM-SCC1A cells = assay: Oxygen consumption rate (Seahorse) in UM-SCC1A cells; format: cell-based, human; conditions: 10 μM, 24 h
Experimental: UM-SCC1A cells were plated 15,000/well and treated for 24 h with 10 μM of (+)-solenopsin A ((+) Sol. A), (−)-solenopsin A ((−) Sol. A), and solenopsin analogs S11-S15. Oxygen consumption rate (OCR) was measured as pmoles O2/minute using a Seahorse Biosciences instrument. Data shown are an average of three experiments±s.d.
At least not in Braf mutated cell lines, such as A375 and A2058. One possibility is that solenopsin, like ceramide, may also localize to mitochondria, and cause mitochondrial induced cell death. Cellular oxygen consumption rate can be indicative of mitochondrial function. Therefore, to investigate if solenopsin A and analogs do alter mitochondrial function, UM-SCC1A (human head and neck SCC) cells were then treated with 10 μM compound or the equivalent amount of DMSO and incubated for 24 hours. A SeaHorse Bioscience instrument was used to measure the oxygen consumption rate (OCR). […] Mitophagy can be one reason for decreased OCR, but further assays are needed to confirm the cause for the observed differences.
UM-SCC1A cells were plated 15,000 per well in 200 μl DMEM supplemented with 10% FBS and 1% penicillin-streptomycin in each well of a 96-well Seahorse plate and incubated overnight at 37° C. with 5% CO2. Cells were then treated with 10 μM compound or the equivalent amount of DMSO and incubated for 24 hours. OCR was measured as pmoles O2/minute using the Seahorse Biociences instrument per manufacturer's instructions. Protein amounts in each well were then quantified using the Thermo Scientific Pierce Protein Assay, per manufacturer's instructions.

PDK1 = molecular target: T2, PDK1 (Homo sapiens, UniProt O15530); assay: FRET biosensor Lyn-PARE, PDK1 activation in membrane rafts of NIH3T3 cells; format: cell-based, murine; conditions: 10 μM, 1 h
T2 construct: PARE was generated by sandwiching full-length PDK1 between a fluorescent protein pair (FRET pair), ECFP and citrine; expressed in transfected cells; host or cells: NIH3T3
T2 sequence (O15530 1-556): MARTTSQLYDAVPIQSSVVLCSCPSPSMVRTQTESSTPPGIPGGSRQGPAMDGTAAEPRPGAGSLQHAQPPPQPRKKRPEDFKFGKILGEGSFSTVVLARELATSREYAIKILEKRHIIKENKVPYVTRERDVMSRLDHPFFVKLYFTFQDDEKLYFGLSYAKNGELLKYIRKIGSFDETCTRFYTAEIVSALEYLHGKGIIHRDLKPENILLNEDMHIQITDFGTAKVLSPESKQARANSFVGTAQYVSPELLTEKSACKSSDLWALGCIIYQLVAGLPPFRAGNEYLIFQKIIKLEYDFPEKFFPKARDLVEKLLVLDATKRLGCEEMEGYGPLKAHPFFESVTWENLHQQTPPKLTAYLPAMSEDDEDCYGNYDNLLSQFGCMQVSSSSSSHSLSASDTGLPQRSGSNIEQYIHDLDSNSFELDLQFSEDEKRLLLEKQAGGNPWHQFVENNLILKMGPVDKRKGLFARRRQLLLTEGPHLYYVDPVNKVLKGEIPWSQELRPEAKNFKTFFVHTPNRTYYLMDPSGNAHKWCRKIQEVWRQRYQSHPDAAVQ
Experimental: as §1, §2, §3

Q: Which “inhibition of Akt translocation (PH(Akt)-citrine)” value (PH domain of Akt1) does the source give for `CCCCCCCCCCCCCCCCCCCC1CCCC(C)N1` (centres unmarked) [Compound S13, 2-Methyl-6-nonadecylpiperidine] here?
A: Its value is “some inhibition”.

Q: What about the “inhibition of Akt activity (AktAR)” value (Akt) of the same molecule?
A: Its value is “some inhibition”.

Q: What about the antiproliferative effect [1] of the same molecule?
A: The antiproliferative effect was “lower antiproliferative effect than S12”.

Q: And the “effect on superoxide levels (DHE fluorescence)” value (A375 cells)?
A: Its value is “no effect on superoxide levels”.

Q: What about the antiproliferative effect [2] of the same molecule?
A: Its antiproliferative effect is “lower antiproliferative effect than S12”.

Q: And the antiproliferative effect [3]?
A: Its antiproliferative effect is “lower antiproliferative effect than S12”.

Q: And the “oxygen consumption rate (OCR) compared to DMSO control” value (UM-SCC1A cells)?
A: The value was “slightly reduced OCR”.

Q: What about the “inhibition of PDK1 activation (Lyn-PARE)” value (PDK1) of the same molecule?
A: Its value is “some inhibition”.
